Consider three molecules from ChEMBL document CHEMBL4819146, “Optimization of physicochemical properties of pyridone-based EP3 receptor antagonists” (Bioorg Med Chem Lett, 2021).

SMILES strings stand for the structures.

Data set [1] is described as follows: Volume of distribution at steady state in Sprague-Dawley rat at 2 mg/kg, iv. It counts as ADME, organism-based. Conditions: in vivo, read-out: Vdss.
A short description of data set [2]: Apparent permeability from apical to basolateral side in dog MDCK cells. The format is ADME, cell-based, Canis lupus familiaris.
The nature of data set [3]: AUC in Sprague-Dawley rat at 20 mg/kg, po. Further details: dose 20 mg/kg. The settings on record: in vivo. It counts as ADME, organism-based.
Data set [4] can be described thus: Cmax in Sprague-Dawley rat at 20 mg/kg, po. More on the design: route oral, dose 20 mg/kg. The format is ADME, organism-based. The settings on record: in vivo.
The nature of data set [5]: Oral bioavailability in Sprague-Dawley rat at 20 mg/kg. The format is ADME, organism-based. The settings on record: in vivo.

As for `CC(C)C(c1noc(=O)[nH]1)c1ccc(-c2ccc3cccc(F)c3c2)[nH]c1=O` (configuration not stated), the Vd in data set [1] was 0.21 L/kg. In data set [2], the Papp A→B – broadly, the apparent permeability from the apical to the basolateral side of a cell layer – was 25.3 ×10⁻⁶ cm/s. The AUC (as a rule, concentration integrated over time) in data set [3] amounted to 15775 ng·h/mL. Moreover, the Cmax (commonly the peak of the concentration-time curve) in data set [4] was found to be 6960 ng/mL. Besides, the F in data set [5] was 47.8%.

Take `CCn1ncc2c(F)cc(-c3ccc(C(CC)(CC)c4nnc[nH]4)c(=O)[nH]3)cc21`: the Vd in data set [1] worked out at 0.5 L/kg. In addition, the AUC in data set [3] came out at 59653 ng·h/mL. For the same molecule, the Cmax in data set [4] was 5120 ng/mL. Also, the F in data set [5] was 81.6%.

`CC(C)C(c1nnc[nH]1)c1ccc(-c2ccc3cccc(F)c3c2)[nH]c1=O` (configuration not stated): the Vd in data set [1] was determined as 1.98 L/kg. The same molecule had an AUC in data set [3] of 4242 ng·h/mL. This molecule registered a Cmax in data set [4] of 409 ng/mL.
